Experiments:
[1] = chronic administration; cited from earlier work
[2] = Sex steroid ablation therapy of the patient with an LHRH agonist (Example 6); type: in vivo, human; conditions: single dose effective for 3 months
Procedure: The patient was given sex steroid ablation therapy in the form of delivery of an LHRH agonist. This was given in the form of either Leucrin (depot injection; 22.5 mg) or Zoladex® (implant; 10.8 mg), either one as a single dose effective for 3 months. […] In some cases it is also necessary to deliver a suppresser of adrenal gland production of sex steroids. Cosudex® (5 mg/day or 50 mg/day) may also be given as one tablet per day for the duration of the sex steroid ablation therapy. Alternatively, the patient is given a GnRH antagonist, e.g., Cetrorelix or Abarelix as a subcutaneous injection

[3] = IL-7 administration with or without castration after allogeneic HSCT, thymic cellularity; type: in vivo, mice
Excerpt: Male C57BL/6J (B6, H-2b), C3FeB6F1/J([B6 3 C3H]F1; H-2b/k), B10.BR (H-2k), B6D2F1/J (H-2b/d), CBA/J (H-2k), Balb/c (H2-d), IL7−/− and KGF−/− mice were obtained from the Jackson Laboratory (Bar Harbor, Maine) and used in experiments when they were between 8 and 12 weeks of age. KGF−/− and IL7−/− were used between 4 and 7 months of age. HSCT protocols were approved by the Memorial Sloan-Kettering Cancer Center Institutional Animal Care and Use Committee. The BM cells were removed aseptically from femurs and tibias. Donor BM was depleted of T cells by incubation with anti-Thy-1.2 for 30 minutes at 4° C. followed by incubation with Low-TOX-M rabbit complement (Cedarlane Laboratories, Hornby, ON, Canada) for 1 hour at 37° C. Splenic T cells (for GVHD analysis) were obtained by purification over a nylon wool column followed by red cell removal with ammonium chloride red cell lysis buffer. Cells (5×10^6 BM cells with or without splenic T cells and leukemia cells) were resuspended in Dulbecco modified essential medium (Life Technologies, Grand Island, N.Y.) and transplanted by tail vein infusion (0.25 mL total volume) into lethally irradiated recipients on day 0. Prior to transplantation, on day 0, recipients received 1300 cGy total body irradiation (^137Cs source) as split dose with 3 hours between doses (to reduce gastrointestinal toxicity). Mice were housed in sterilized microisolator cages and received normal chow and autoclaved hyperchlorinated drinking water (pH 3.0).
IL-7 were either given from days 0 to 13 or 21 to 27 intraperitoneally at 10 μg/day for immune reconstitution studies. PBS was injected into control mice at the same time points.
BM cells, splenocytes or thymocytes were washed in FACS buffer (phosphate buffered saline (PBS)/2% bovine serum albumin (BSA)/0.1% azide) and 1-3×10^6 cells were incubated for 30 minutes at 4° C. with CD16/CD32 FcR block. Cells were then incubated for 30 minutes at 4° C. with primary antibodies and washed twice with FACS buffer. Where necessary, cells were incubated with conjugated Streptavidin for a further 30 minutes at 4° C. The stained cells were resuspended in FACS buffer and analyzed on a FACSCalibur™ flow cytometer (Becton Dickinson, San Jose, Calif.) with CellQuest™ software.

[4] = system: IL-7-dependent murine pre-B cell line 2E8; test: Thymidine incorporation proliferation assay with IL-7-dependent cell line; type: cell-based; conditions: 2E8 cells
Procedure: Tissue culture medium consisted of RPMI 1640 supplemented with 10% heat inactivated fetal calf serum, 100 U/mL penicillin, […] streptomycin, and 2 mM L-glutamine (as well as […] 2-mercaptoethanol for the culture of 32Dp210 cells and proliferation assays).

[5] = Chemical castration of aged female Balb/cJ mice, radioimmunoassay of plasma sex steroids; type: in vivo; conditions: 10 mg/kg s.c., 1 month slow release formulation
Procedure: To do this, aged (i.e., 2 year old) female Balb/cJ (H-2d) mice are either surgically castrated (e.g., by removing the ovaries according to standard methods), or are chemically castrated. For chemical castration, mice are injected subcutaneously with 10 mg/kg Lupron (a GnRH agonist) as a 1 month slow release formulation. Alternatively mice are injected with a GnRH antagonist (e.g., Cetrorelix or Abarelix). Confirmation of loss of sex steroids is performed by standard radioimmunoassay of plasma samples following manufacturer's instructions, and may be monitored throughout the procedure.

[6] = Chemical castration versus surgical castration after cyclophosphamide T cell depletion; type: in vivo, mice
Excerpt: FIG. 9: Changes in thymus (open bars), spleen (gray bars) and lymph node (black bars) cell numbers following treatment with cyclophosphamide, a chemotherapy agent, and surgical or chemical castration performed on the same day. Note the rapid expansion of the thymus in castrated animals when compared to the non-castrate (cyclophosphamide alone) group at 1 and 2 weeks post-treatment. In addition, spleen and lymph node numbers of the castrate group were well increased compared to the cyclophosphamide alone group. (n=3-4 per treatment group and time point).
Old mice (e.g., 2 years old) were injected with cyclophosphamide (200 mg/kg body wt over two days) and castrated.
FIG. 9 illustrates the use of chemical castration compared to surgical castration in enhancement of T cell regeneration. […] The enhancing effects were equivalent on thymic expansion and also the recovery of spleen and lymph node. The kinetics of chemical castration are slower than surgical, that is, mice take about 3 weeks longer to decrease their circulating sex steroid levels. However, chemical castration is still as effective as surgical castration and can be considered to have an equivalent effect.

## CC(C)C[C@H](NC(=O)[C@@H](COC(C)(C)C)NC(=O)[C@H](Cc1ccc(O)cc1)NC(=O)[C@H](CO)NC(=O)[C@H](Cc1c[nH]c2ccccc12)NC(=O)[C@H](Cc1cnc[nH]1)NC(=O)[C@@H]1CCC(=O)N1)C(=O)N[C@@H](CCCNC(=N)N)C(=O)N1CCC[C@H]1C(=O)NNC(N)=O [Zoladex, goserelin acetate]
[1]
  serum testosterone levels in males: a range normally seen in surgically castrated men
  time to sustained suppression of pituitary LH after initiation of therapy: approximately three
[2]
  reduction of sex steroid levels: effective in reducing sex steroid levels sufficiently to reactivate the thymus

## IL-7: Recombinant human IL-7 provided by Cytheris
[3]; day 14 after allo-HSCT
  thymic cellularity, combined treatment (castration and IL-7): significantly more cells
[3]; day 14 after allo-HSCT, 10 ug/day i.p. days 0-13
  thymic cellularity, IL-7 treated sham-castrated versus PBS treated sham-castrated: no difference
[3]; day 28 after allo-HSCT
  effect of IL-7 treatment combined with castration on thymic cellularity: additive effect
  thymic cellularity, IL-7 alone group versus control group: significantly higher
[4]
  proliferative effect on murine cells: equal to murine IL-7

## CCNC(=O)[C@@H]1CCCN1C(=O)[C@H](CCCNC(=N)N)NC(=O)[C@H](CC(C)C)NC(=O)[C@@H](CC(C)C)NC(=O)[C@H](Cc1ccc(O)cc1)NC(=O)[C@H](CO)NC(=O)[C@H](Cc1c[nH]c2ccccc12)NC(=O)[C@H](Cc1c[nH]cn1)NC(=O)[C@@H]1CCC(=O)N1 [Lupron, leuprolide acetate]
[5]
  time post injection to castrate levels (<0.5 ng estrogen/ml): 3-4 weeks

## CCNC(=O)[C@@H]1CCCN1C(=O)[C@H](CCCN=C(N)N)NC(=O)[C@H](CC(C)C)NC(=O)[C@@H](Cc1c[nH]c2ccccc12)NC(=O)[C@H](Cc1ccc(O)cc1)NC(=O)[C@H](CO)NC(=O)[C@H](Cc1c[nH]c2ccccc12)NC(=O)[C@H](Cc1cnc[nH]1)NC(=O)[C@@H]1CCC(=O)N1 [Deslorelin]
[6]; chemical castration
  additional time to decrease circulating sex steroid levels versus surgical castration: about 3 weeks
[6]; injected for four weeks, T cell regeneration
  rate of regeneration post-cyclophosphamide treatment compared to surgical castration: comparable rate of regeneration
[6]; post-cyclophosphamide
  enhancing effects on thymic expansion and recovery of spleen and lymph node versus surgical castration: equivalent
